Assay results reported in patent US8426447B2, “Spiro-tricyclic ring compounds as beta-secretase modulators and methods of use” (Amgen Inc., priority 2008, dated 2013).

Columns and labels:
BACE1 [1] = biological target: T1, BACE1 (Homo sapiens, UniProt P56817); assay: In Vitro Enzymatic BACE FRET (Fluorescence Resonance Energy Transfer) Assay; type: biochemical; details: read-out: BACE1 FRET assay
In short: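 Buffer 0.05 M acetate pH 4.2 with 10% DMSO final and 100 uM genapol; reaction started with 50 nM FRET peptide substrate (fluorophore/quencher flanking BACE cleavage site), incubated one hour. Stopped with Tris buffer raising pH to neutrality, then fluorescence read.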

BACE1 [2] = biological target: T1, BACE1; assay: In Vitro BACE Cell-based Assay (HEK cell assay): Aβ40 in conditioned medium of cells stably expressing Amyloid Precursor Protein, sandwich ELISA; details: read-out: HEK cell assay
In short: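 Conditioned medium Aβ40 by ELISA: pAb40 capture 3 h 4° C., biotin-6E10 detection 2 h 4° C., Streptavidin-Europium TRF. IC50 fitted from % control.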

[3] = in vitro BACE FRET enzyme assay, IC50 class symbols
[4] = HEK cell-based assay, Aβ40 in conditioned medium, IC50 class symbols

T1 sequence (P56817 46-501, species assumed): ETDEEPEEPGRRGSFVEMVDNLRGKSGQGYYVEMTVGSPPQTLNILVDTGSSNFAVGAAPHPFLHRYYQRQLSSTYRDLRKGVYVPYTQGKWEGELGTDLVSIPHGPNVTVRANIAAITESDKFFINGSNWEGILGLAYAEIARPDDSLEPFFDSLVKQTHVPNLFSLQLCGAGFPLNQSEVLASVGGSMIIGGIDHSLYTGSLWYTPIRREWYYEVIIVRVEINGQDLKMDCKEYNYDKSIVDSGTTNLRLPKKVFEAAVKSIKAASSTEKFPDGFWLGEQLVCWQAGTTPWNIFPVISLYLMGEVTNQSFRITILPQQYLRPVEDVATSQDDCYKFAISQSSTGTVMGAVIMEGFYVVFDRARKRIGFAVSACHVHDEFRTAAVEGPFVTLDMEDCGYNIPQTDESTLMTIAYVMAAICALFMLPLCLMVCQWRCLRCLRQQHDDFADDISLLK

Work on `NC1=N[C@@]2(CO1)c1cc(-c3ccccc3F)ccc1Oc1cnc(C3=CCOCC3)cc12` [compound 426] yielded an IC50 (BACE1 [1]) of under 0.1 µM and an IC50 (BACE1 [2]; HEK cells) of 0.1 to 1 µM.
Compound `NC1=N[C@@]2(CO1)c1cc(-c3cccnc3F)ccc1Oc1ccc(C3CCOCC3)nc12` [compound 338] has an IC50 (BACE1 [1]; [3]) of under 0.1 µM and an IC50 (BACE1 [2]; [4]) of under 0.1 µM.
For `CC1(COc2ccc3c(c2)[C@@]2(COC(N)=N2)c2cc(-c4ccc(F)cc4)cnc2O3)COC1` [compound 775], the IC50 (BACE1 [1]) was under 0.1 µM and the IC50 (BACE1 [2]) was under 0.1 µM.
`CC(C)(C)COc1ccc2c(c1)[C@]1(COC(N)=N1)c1cc(C(=O)N3CCCC3)ccc1O2` [218b] showed an IC50 (BACE1 [1]; Table III, IC50's in uM ranges) of 0.1 to 1 µM and an IC50 (BACE1 [2]; Table III, IC50's in uM ranges) of 0.1 to 1 µM.
`COc1ccc2c(c1)[C@]1(COC(N)=N1)c1cc(-c3ccnc4ccccc34)ccc1O2` [compound 589] gave an IC50 (BACE1 [1]; Table IV, class symbols) of 1 to 5 µM and an IC50 (BACE1 [2]; Table IV, class symbols) of 1 to 5 µM.
In the case of `CC(C)(O)C#Cc1ccc2c(c1)C1(COC(N)=N1)c1cc(C#CC(C)(C)O)ccc1O2` [compound 118], the IC50 (BACE1 [1]; Table III, IC50's in uM ranges) is reported as 1 to 5 µM and the IC50 (BACE1 [2]; Table III, IC50's in uM ranges) is reported as 1 to 5 µM.
In the case of `NC1=N[C@@]2(CO1)c1cc(-c3ccc(F)nc3)ccc1Oc1cnc(-c3ccc(F)nc3)cc12` [compound 433], the IC50 (BACE1 [1]) is reported as under 0.1 µM and the IC50 (BACE1 [2]; HEK cells) is reported as 0.1 to 1 µM.
Compound `CC(C)(C)COc1ccc2c(c1)[C@]1(COC(N)=N1)c1cc(-c3ccc(C#N)nc3)ccc1O2` [compound 882] has an IC50 (BACE1 [1]; Table IV, class symbols) of under 0.1 µM and an IC50 (BACE1 [2]; Table IV, class symbols) of 1 to 5 µM.
For `COC(C)(C)C#Cc1cnc2c(c1)[C@]1(COC(N)=N1)c1cc(-c3cncnc3)ccc1O2` [compound 822], the IC50 (BACE1 [1]; Table IV, class symbols) was under 0.1 µM and the IC50 (BACE1 [2]; Table IV, class symbols) was under 0.1 µM.
For `NC1=N[C@]2(CO1)c1cc(OCC3CCOCC3)ccc1Oc1ccc(-c3cncnc3)cc12` [compound 175], the IC50 (BACE1 [1]; Table III, IC50's in uM ranges) was under 0.1 µM and the IC50 (BACE1 [2]; Table III, IC50's in uM ranges) was under 0.1 µM.
With `NC1=N[C@@]2(CO1)c1ccccc1Oc1ccc(-c3cccnc3)cc12` [compound 640] the IC50 (BACE1 [1]; Table IV, class symbols) was 1 to 5 µM and the IC50 (BACE1 [2]; Table IV, class symbols) was 1 to 5 µM.
`NC1=N[C@]2(CO1)c1cc(-c3ccc(F)nc3)ccc1Oc1ncc(C3=CCOCC3)cc12` [compound 716] was tested, and the IC50 (BACE1 [1]) was 1 to 5 µM and the IC50 (BACE1 [2]) was 1 to 5 µM.
With `CC(C)(C)COc1ccc2c(c1)[C@]1(COC(N)=N1)c1cc(-c3ccccc3)ccc1O2` [Example 85, (4S)-2′-(2,2-dimethylpropoxy)-7′-phenylspiro[1,3-oxazole-4,9′-xanthen]-2-amine] the IC50 (BACE1 [1]; Table II) was under 0.1 µM and the IC50 (BACE1 [2]; Table II, Aβ40, 24 h incubation) was 1 to 5 µM.
`CC(C)(C)/C=C/c1cc2c(cn1)Oc1ccc(-c3cccnc3F)cc1[C@@]21COC(N)=N1` [compound 514] was tested, and the IC50 (BACE1 [1]) was under 0.1 µM and the IC50 (BACE1 [2]; HEK cells) was under 0.1 µM.
In the case of `CC(C)(C)COc1ccc2c(c1)[C@@]1(CSC(N)=N1)c1cc(-c3cncnc3)ccc1O2` [compound 721], the IC50 (BACE1 [1]) is reported as under 0.1 µM and the IC50 (BACE1 [2]) is reported as 1 to 5 µM.
With `COc1cc2c(cc1F)Oc1ccc(-c3cncnc3)cc1[C@]21COC(N)=N1` [154a] the IC50 (BACE1 [1]; Table III, IC50's in uM ranges) was over 5 µM and the IC50 (BACE1 [2]; Table III, IC50's in uM ranges) was over 5 µM.
With `N#Cc1ccc(-c2cc3c(cn2)Oc2ccc(-c4cccnc4F)cc2[C@@]32COC(N)=N2)cc1` [compound 372] the IC50 (BACE1 [1]; [3]) was under 0.1 µM and the IC50 (BACE1 [2]; [4]) was under 0.1 µM.
Work on `CC1(C)C[C@H](c2ccc3c(c2)[C@]2(COC(N)=N2)c2cc(-c4cncnc4)ccc2O3)CCO1` [compound 482] yielded an IC50 (BACE1 [1]) of under 0.1 µM and an IC50 (BACE1 [2]; HEK cells) of under 0.1 µM.
Compound `CC(C)(F)COc1cnc2c(c1)[C@]1(COC(N)=N1)c1cc(-c3cccnc3)ccc1O2` [compound 450] has an IC50 (BACE1 [1]) of under 0.1 µM and an IC50 (BACE1 [2]; HEK cells) of under 0.1 µM.
In the case of `CC(C)(C)COc1ccc2c(c1)[C@]1(COC(N)=N1)c1cc(-c3cccnc3F)cnc1O2` [compound 871], the IC50 (BACE1 [1]; Table IV, class symbols) is reported as under 0.1 µM and the IC50 (BACE1 [2]; Table IV, class symbols) is reported as 0.1 to 1 µM.
Work on `CC(C)(F)COc1ccc2c(c1)[C@]1(COC(N)=N1)c1cc(-c3cncnc3)cnc1O2` [compound 176] yielded an IC50 (BACE1 [1]; Table III, IC50's in uM ranges) of under 0.1 µM and an IC50 (BACE1 [2]; Table III, IC50's in uM ranges) of 0.1 to 1 µM.
For `NC1=N[C@@]2(CO1)c1cc(-c3cccnc3)ccc1Oc1cc(F)c(C3=CCOCC3)cc12` [compound 476], the IC50 (BACE1 [1]) was under 0.1 µM and the IC50 (BACE1 [2]; HEK cells) was under 0.1 µM.
`COC(C)(C)C#Cc1cnc2c(c1)[C@@]1(COC(N)=N1)c1cc(-c3cnccn3)ccc1O2` [compound 694] gave an IC50 (BACE1 [1]) of 1 to 5 µM and an IC50 (BACE1 [2]) of over 5 µM.
With `CC1(C)CN(c2ccc3c(c2)[C@]2(COC(N)=N2)c2cc(-c4cncnc4)ccc2O3)C1` [compound 561] the IC50 (BACE1 [1]; Table IV, class symbols) was under 0.1 µM and the IC50 (BACE1 [2]; Table IV, class symbols) was under 0.1 µM.
`CC(C)(C)COc1ccc2c(c1)[C@]1(COC(N)=N1)c1cc(C3CC3)ccc1O2` [compound 759] showed an IC50 (BACE1 [1]) of 0.1 to 1 µM and an IC50 (BACE1 [2]) of 1 to 5 µM.
In the case of `NC1=N[C@@]2(CO1)c1cc(-c3ccccc3F)ccc1Oc1ncc(C3=CCOCC3)cc12` [compound 488], the IC50 (BACE1 [1]) is reported as under 0.1 µM and the IC50 (BACE1 [2]; HEK cells) is reported as under 0.1 µM.
`NC1=N[C@]2(CO1)c1cc(CCCCO)ccc1Oc1ccc(-c3cccnc3)cc12` [compound 194] showed an IC50 (BACE1 [1]; Table III, IC50's in uM ranges) of under 0.1 µM and an IC50 (BACE1 [2]; Table III, IC50's in uM ranges) of under 0.1 µM.
`CC1(COc2cc3c(cc2F)Oc2ccc(-c4cncnc4)cc2[C@]32COC(N)=N2)COC1` [compound 713] gave an IC50 (BACE1 [1]) of 0.1 to 1 µM and an IC50 (BACE1 [2]) of 0.1 to 1 µM.
